Assays:
[1] = system: Phaedon cochleariae larvae; assay: Phaedon cochleariae larvae test (cabbage leaf dip, kill rate, Colby synergy)
Myzus persicae = Myzus persicae test (cabbage leaf dip, kill rate, Colby synergy); type: in vivo

Cn1cc(C(=O)Nc2ccccc2C2CC2C2CC2)c(C(F)F)n1 (stereo not drawn) [Compound (I-4)]
0%: Kill in % after 4d ([1]; Table B1, 200 ppm) | Kill in % after 6d ([1]; Table B2, 200 ppm, after 6 d) | Kill in % after 4d ([1]; Table B3, 200 ppm) | Kill in % after 4d ([1]; Table B3, 400 ppm) | Kill in % after 1d (Myzus persicae; Table A1, 200 ppm) | Kill in % after 1d (Myzus persicae; Table A2, 200 ppm)

— patent US20090247511A1, “SYNERGISTIC INSECTICIDE AND FUNGICIDE MIXTURES” (BAYER CROPSCIENCE AG, priority 2006, published 2009)
